Source: patent publication US20220324865A1 (Bayer Aktiengesellschaft, priority 2018, published 2022)
pIC50: −log10 of the molar value.

Molecular target: T1, human EP3 receptor (Homo sapiens, UniProt P43115)
T1 construct: expressed in transfected cells; host or cells: CHO K1 (Chinese Hamster Ovary), stably co-transfected with Galpha16 and mitochondrial clytin
T1 sequence (P43115 1-390): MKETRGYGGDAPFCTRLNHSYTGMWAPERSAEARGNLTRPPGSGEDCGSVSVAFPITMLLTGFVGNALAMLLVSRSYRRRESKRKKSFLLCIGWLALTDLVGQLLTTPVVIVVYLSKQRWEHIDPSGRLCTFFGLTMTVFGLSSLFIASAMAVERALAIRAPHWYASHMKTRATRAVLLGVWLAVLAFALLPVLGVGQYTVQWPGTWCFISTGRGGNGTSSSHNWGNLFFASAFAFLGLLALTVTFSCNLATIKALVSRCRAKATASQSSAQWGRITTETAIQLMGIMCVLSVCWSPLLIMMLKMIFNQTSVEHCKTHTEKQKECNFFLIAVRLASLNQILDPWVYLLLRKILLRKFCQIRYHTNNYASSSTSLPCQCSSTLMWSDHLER
Experiment: Cellular in vitro assay for determining EP3 receptor activity (human EP3 cell line, sulprostone-stimulated calcium luminescence)
Type: cell-based
Conditions: CHO cells expressing human EP3 and mitochondrial Clytin; antagonist mode, sulprostone at EC50; read-out: EP3 CHO mtCLY ANTAG IC50
Protocol: B-1. Cellular In Vitro Assay for Determining EP3 Receptor Activity
The identification of antagonists of the EP3 receptor from humans and rats as well as the quantification of the activity of the compounds of the invention was carried out using recombinant cell lines. These cell lines originally derive from a hamsters ovary epithelial cell (Chinese Hamster Ovary, CHO K1, ATCC: American Type Culture Collection, Manassas, Va. 20108, USA). The test cell lines constitutively express the human or rat EP3 receptors. The naturally Gαi-coupled human and rat EP3 receptors were stably co-transfected with Gα16 into cells that are also stably transfected with a mitochondrial form of the calcium-sensitive photoproteins Clytin (human EP3) or Photina (rat EP3), which, after reconstitution with the cofactor coelenterazine, emit light when there are increases in free calcium concentrations (Nature 1992, 358, 325-327; Gene 1995, 153 (2), 273-274). The resulting EP3 receptor cells react to stimulation of the recombinantly expressed EP3 receptors by the agonist sulprostone with intracellular release of calcium ions, which can be quantified by the resulting photoprotein luminescence. Antagonists inhibit the receptor signaling, leading to reduced calcium release and luminescence. The bioluminescence of the cell lines is detected using a suitable luminometer (Trends Pharmacol. Sci. 1996, 17, 235-237).
Human and Rat EP3 Cell Lines:
On the day before the assay, the cells are plated out in culture medium (OptiMEM, 1% FCS, 2 mM glutamine, 10 mM HEPES, 5 μg/ml coelenterazine) in 384-well microtiter plates and kept in a cell incubator (96% humidity, 5% v/v CO2, 37° C.). On the day of the assay, test compounds in various concentrations are placed for 10 minutes in the wells of the microtiter plate before the agonist sulprostone at EC50 concentration is added. The resulting light signal is measured immediately in a luminometer. All concentrations are measured in quadruples.

**Q.** How did the pIC50 turn out when `O=C(NCC1CCCCC1)c1cc2c(=O)[nH]c(-c3ccc4c(c3)OCCO4)cn2n1` [Example 1-43, N-(Cyclohexylmethyl)-6-(2,3-dihydro-1,4-benzodioxin-6-yl)-4-oxo-4,5-dihydropyrazolo[1,5-a]-pyrazine-2-carboxamide] was run?
**A.** 8.77

**Q.** How did the pIC50 turn out when `Cc1ccc(-c2cn3nc(C(=O)N[C@@H](C)C4CC4)c(C4CC4)c3c(=O)[nH]2)cc1Cl` [6-254] was run?
**A.** 8.64

**Q.** `CCn1cc(CNC(=O)c2nn3cc(-c4ccc(C)c(C)c4)[nH]c(=O)c3c2Cl)c(C)n1` [6-112] was tested. Which pIC50 did it give?
**A.** 8.94

**Q.** How did the pIC50 turn out when `CCn1cc(Cl)c(CNC(=O)c2nn3cc(-c4cnc5cccc(C)c5c4)[nH]c(=O)c3c2C(C)C)n1` [Example 4-23, N-[(4-Chloro-1-ethyl-1H-pyrazol-3-yl)methyl]-6-(5-methylquinolin-3-yl)-4-oxo-3-(propan-2-yl)-4,5-dihydropyrazolo[1,5-a]pyrazine-2-carboxamide] was run?
**A.** 9.00

**Q.** How did the pIC50 turn out when `CCN(CCO)CC(NC(=O)c1cc2c(=O)[nH]c(-c3ccc(C)c(C)c3)cn2n1)c1ccccc1` (stereo not shown) [Example 1-85, 6-(3,4-Dimethylphenyl)-N-[2-[ethyl(2-hydroxyethyl)amino]-1-phenylethyl]-4-oxo-5H-pyrazolo-[1,5-a]pyrazine-2-carboxamide] was run?
**A.** 8.52

**Q.** `COc1ccc2c(c1)CCCC2NC(=O)c1nn2cc(-c3cnc4cccc(C)c4c3)[nH]c(=O)c2c1C(C)C` (stereo not shown) [Example 4-64, 3-Isopropyl-N-(6-methoxy-1,2,3,4-tetrahydronaphthalen-1-yl)-6-(5-methylquinolin-3-yl)-4-oxo-4,5-dihydropyrazolo[1,5-a]pyrazine-2-carboxamide] was tested. Which pIC50 did it give?
**A.** 8.59

**Q.** With `COc1ccc([C@@H](C)NC(=O)c2nn3cc(-c4ccc5ccccc5c4)[nH]c(=O)c3c2C(F)(F)F)cn1` [Example 1-79, N-[(1R)-1-(6-Methoxpyridin-3-yl)ethyl]-6-(naphthalen-2-yl)-4-oxo-3-(trifluoromethyl)-4,5-dihydro-pyrazolo[1,5-a]pyrazine-2-carboxamide] as the compound, how does the pIC50 read?
**A.** 9.22

**Q.** `Cc1ccc(-c2cn3nc(C(=O)N[C@H](C)C4CC4)c(C4CC4)c3c(=O)[nH]2)cc1Cl` [6-283] was tested. Which pIC50 did it give?
**A.** 9.39

**Q.** How did the pIC50 turn out when `CC[C@@H](C)NC(=O)c1nn2cc(-c3ccc(C)c(Cl)c3)[nH]c(=O)c2c1C1CC1` [6-271] was run?
**A.** 9.06

**Q.** With `COc1ccc(CNC(=O)c2cc3c(=O)[nH]c(-c4ccc(C)c(Cl)c4)cn3n2)cc1OC` [6-80] as the compound, how does the pIC50 read?
**A.** 8.66

**Q.** With `Cc1ccc(-c2cn3nc(C(=O)NC(c4ccc(F)cc4)C4(O)CC4)c(C4CC4)c3c(=O)[nH]2)cc1F` (racemic) [6-381] as the compound, how does the pIC50 read?
**A.** 8.82

**Q.** How did the pIC50 turn out when `CC[C@H](C)NC(=O)c1nn2cc(-c3ccc(Cl)c(C)c3)[nH]c(=O)c2c1C(F)(F)F` [6-216] was run?
**A.** 8.28

**Q.** With `Cc1c(C(=O)N[C@H]2c3ccccc3C[C@H]2O)nn2c(C)c(-c3ccc4ccccc4c3)[nH]c(=O)c12` [Example 3-67, N-[(7S,2R)-2-Hydroxy-2,3-dihydro-1H-inden-1-yl]-3,7-dimethyl-6-(naphthalen-2-yl)-4-oxo-4,5-dihydropyrazolo[1,5-a]pyrazine-2-carboxamide] as the compound, how does the pIC50 read?
**A.** 8.69

**Q.** With `COc1ccc(CNC(=O)c2nn3cc(-c4ccc5ccccc5c4)[nH]c(=O)c3c2C(C)C)cc1OC` [Example 1-10, N-(3,4-Dimethoxybenzyl)-6-(naphthalen-2-yl)-4-oxo-3-(propan-2-yl)-4,5-dihydropyrazolo[1,5-a]-pyrazine-2-carboxamide] as the compound, how does the pIC50 read?
**A.** 9.24

**Q.** How did the pIC50 turn out when `Cc1ccc(-c2cn3nc(C(=O)N[C@@H](c4ccccc4)C(C)(C)O)c(C(F)(F)F)c3c(=O)[nH]2)cc1F` [6-143] was run?
**A.** 8.36

**Q.** With `CC(NC(=O)c1nn2cc(-c3ccc4ccccc4c3)[nH]c(=O)c2c1C#N)c1ccccc1OC(F)F` (stereo not shown) [Example 3-60, 3-Cyano-N-[1-[2-(difluoromethoxy)phenyl]ethyl]-6-(2-naphthyl)-4-oxo-5H-pyrazolo[1,5-a]pyrazine-2-carboxamide] as the compound, how does the pIC50 read?
**A.** 8.73

**Q.** With `Cc1ccc(-c2cn3nc(C(=O)N[C@H](CCO)c4ccc(F)cc4)c(C(C)C)c3c(=O)[nH]2)cc1C` [Example 1-92, 6-(3,4-Dimethylphenyl)-N-[(1R)-1-(4-fluorophenyl)-3-hydroxpropyl]-4-oxo-3-(propan-2-yl)-4,5-dihydropyrazolo[1,5-a]pyrazine-2-carboxamide] as the compound, how does the pIC50 read?
**A.** 9.20

**Q.** With `CC(C)(C)OC(=O)N1CC(NC(=O)c2cc3c(=O)[nH]c(-c4ccc5c(c4)OCCO5)cn3n2)(c2ccc(F)cc2)C1` [6-54] as the compound, how does the pIC50 read?
**A.** 8.47

**Q.** With `Cc1ccc(-c2cn3nc(C(=O)NCCN(CC(F)F)C4CC4)c(C4CC4)c3c(=O)[nH]2)cc1C` [6-460] as the compound, how does the pIC50 read?
**A.** 8.77

**Q.** How did the pIC50 turn out when `O=C(N[C@H](CCO)c1ccc(F)cc1)c1nn2cc(-c3ccc4ccccc4c3)[nH]c(=O)c2c1C1CC1` [Example 1-144, 3-Cyclopropyl-N-[(1R)-1-(4-fluorophenyl)-3-hydroxypropyl]-6-(naphthalen-2-yl)-4-oxo-4,5-dihydropyrazolo[1,5-a]pyrazine-2-carboxamide] was run?
**A.** 8.52

**Q.** How did the pIC50 turn out when `O=C(NC(c1ccccc1)C(F)F)c1cc2c(=O)[nH]c(-c3ccc4c(c3F)OCCO4)cn2n1` (stereo not shown) [Example 1-110, N-(2,2-Difluoro-1-phenylethyl)-6-(5-fluoro-2,3-dihydro-1,4-benzodioxin-6-yl)-4-oxo-4,5-dihydro-pyrazolo[1,5-a]pyrazine-2-carboxamide] was run?
**A.** 9.00

**Q.** With `Cc1ccc(-c2cn3nc(C(=O)N[C@H](C)c4ccc(F)cc4)cc3c(=O)[nH]2)cc1Cl` [6-81] as the compound, how does the pIC50 read?
**A.** 8.55

**Q.** How did the pIC50 turn out when `Cc1ccc(-c2cn3nc(C(=O)NC(CO)C(F)(F)F)c(C4CC4)c3c(=O)[nH]2)cc1C(F)(F)F` (single isomer, unassigned) [6-250] was run?
**A.** 8.20

**Q.** How did the pIC50 turn out when `Cc1ccc(-c2cn3nc(C(=O)NC4CCN(CC(F)(F)F)C4)c(C4CC4)c3c(=O)[nH]2)cc1F` (single isomer, unassigned) [6-391] was run?
**A.** 8.48

**Q.** How did the pIC50 turn out when `COCc1c(C(=O)N[C@@H](c2ccc(F)cc2)C(F)(F)CO)nn2cc(-c3ccc(C)c(Cl)c3)[nH]c(=O)c12` [6-626] was run?
**A.** 8.99

**Q.** How did the pIC50 turn out when `CC(NC(=O)c1cc2c(=O)[nH]c(-c3ccc4ccccc4c3)cn2n1)c1ccc(Cl)c(Cl)c1` (stereo not shown) [Example 2-51, N-[1-(3,4-Dichlorphenyl)ethyl]-6-(2-naphthyl)-4-oxo-4,5-dihydropyrazolo[1,5-a]pyrazine-2-carboxamide] was run?
**A.** 8.69

**Q.** `CN1CC(NC(=O)c2nn3cc(-c4ccc5ccccc5c4)[nH]c(=O)c3c2Cl)(c2ccc(F)cc2)C1` [Example 1-119, 3-Chloro-N-[3-(4-fluorophenyl)-1-methylazetidin-3-yl]-6-(naphthalen-2-yl)-4-oxo-4,5-dihydropyrazolo[1,5-a]pyrazine-2-carboxamide] was tested. Which pIC50 did it give?
**A.** 8.48

**Q.** With `Cc1cc(-c2cn3nc(C(=O)NCC(C)(N)C(F)(F)F)c(C4CC4)c3c(=O)[nH]2)ccc1Cl` (single isomer, unassigned) [6-321] as the compound, how does the pIC50 read?
**A.** 8.77

**Q.** `Cc1cc(-c2cn3nc(C(=O)N[C@@H](c4ccc(F)cc4)C(F)(F)CO)c(C4CC4)c3c(=O)[nH]2)ccc1Cl` [Example 1-172, 6-(4-Chloro-3-methylphenyl)-3-cyclopropyl-N-[(1S)-2,2-difluoro-1-(4-fluorophenyl)-3-hydroxpropyl]-4-oxo-4,5-dihydropyrazolo[1,5-a]pyrazine-2-carboxamide] was tested. Which pIC50 did it give?
**A.** 9.07

**Q.** `CC(NC(=O)c1cc2c(=O)[nH]c(-c3ccc4cccnc4c3)cn2n1)c1ccc(F)c(F)c1` (stereo not shown) [6-28] was tested. Which pIC50 did it give?
**A.** 8.41

**Q.** `CN(C)CC(NC(=O)c1cc2c(=O)[nH]c(-c3ccc4ccccc4c3)cn2n1)c1ccccc1` (racemic) [Example 1-4, rac-N-[2-(Dimethylamino)-1-phenylethyl]-6-(naphthalen-2-yl)-4-oxo-4,5-dihydropyrazolo[1,5-a]-pyrazine-2-carboxamide] was tested. Which pIC50 did it give?
**A.** 8.36

**Q.** How did the pIC50 turn out when `Cc1cccc2ncc(-c3cn4nc(C(=O)NC5CCS(=O)(=O)C5)c(C(C)C)c4c(=O)[nH]3)cc12` (stereo not shown) [Example 4-12, N-(1,1-Dioxothiolan-3-yl)-3-isopropyl-6-(5-methyl-3-quinolyl)-4-oxo-5H-pyrazolo[1,5-a]pyrazine-2-carboxamide] was run?
**A.** 8.78

**Q.** How did the pIC50 turn out when `CC(C)(O)[C@@H](NC(=O)c1nn2cc(-c3ccc(C(F)(F)F)c(F)c3)[nH]c(=O)c2c1C1CC1)c1ccc(F)cc1` [6-588] was run?
**A.** 8.25

**Q.** `Cc1ccc(-c2cn3nc(C(=O)NCC(O)(C(F)(F)F)C(F)(F)F)c(C4CC4)c3c(=O)[nH]2)cc1F` [6-403] was tested. Which pIC50 did it give?
**A.** 9.16
